What is called half-life is how long it takes for the measured level to halve. Low values mean fast loss, high ones slow loss. A word on the IC50: it is the concentration that gives 50% inhibition.

The structures appear in SMILES notation. Where a name gives a salt, the structure may show the parent alone. Read-outs that look alike come from different tables or passages of the source.

Data set [1] concerns undifferentiated C2C12 cells. The experiment in a line: Cellular uptake of statins by undifferentiated C2C12 cells in medium of altered pH. The note with it: 1 μmol/L, LC MS/MS. The data set is classed as cell-based, mouse. The protocol: (§1) Samples temperature was kept at 4°C, and column temperature was set at 40°C.
Data set [2] concerns differentiated C2C12 cells. The experiment in a line: Cellular uptake of statins by differentiated C2C12 cells in medium of altered pH. The data set is classed as cell-based, mouse. As to conditions: for intracellular levels of pravastatin: 1 μmol/L, LC MS/MS. The protocol: as §1
Data set [3] can be described thus: Hydrolysis of the lactone form of statins in phosphate buffer saline of modified pH. As to conditions: phosphate buffer saline (PBS), 37°C. In kind it is physicochemical. The protocol:
(§2) The pH of DMEM culture medium was adjusted to the target values (6.8–7.8) by adding an appropriate volume of either 1.0 N HCl or NaOH to a medium containing 20 mmol/L 4-2-hydroxyethyl-1-piperazineethanesulfonic acid (HEPES) buffer. The pH was measured at incubation temperature (37°C) by Mettler Toledo T50 pH titrator. […] After equilibration, minor adjustment in pH was occasionally required to reach the desired final pH.[35] Maintaining medium under constant CO2 environment of 5% stabilizes the pH through CO2-HCO3^− equilibrium.[36] The pH of phosphate buffer saline (PBS) was adjusted to the target values (6.8–7.8) in the same way without the need for equilibration.
(§3) The interconversion of the lactone and hydroxy acid forms of simvastatin and pravastatin was investigated by incubating tested compounds with human plasma, PBS, and DMEM culture medium of defined pH values at 37°C for a predetermined period of time. […] Human plasma and PBS samples were incubated in C25 classic incubator shaker (New Brunswick Scientific). For DMEM samples, CO2 supply was maintained at 5% throughout experiment in a tissue culture incubator. The pH of different matrices was adjusted to simulate physiological pH, acidosis, and alkalosis as described previously. After incubation, the interconversion reaction was stopped at predetermined time points by adding 50 μL of ice-cold ammonium acetate buffer (100 mmol/L, pH 4.5) to 100 μL of tested samples.[14] Six replicates were tested at each pH level, and the concentrations of parent and corresponding forms were measured by fully validated HPLC analytical methods.
(§4) Fully validated HPLC-UV methods were used to determine the concentrations of the lactone and the corresponding hydroxy acid forms of simvastatin and pravastatin after interconversion studies in human plasma, PBS, and DMEM culture medium of different pH. Samples for HPLC analysis were prepared by protein precipitation followed by liquid-liquid extraction. A 100 μL of human plasma or DMEM samples were pipetted into 1.5 mL Eppendorf tubes, and 50 μL of ammonium acetate buffer (100 mmol/L, pH 4.5) along with 10 μL of internal standard solution (4,4-dichlorodiphenyltrichloroethane [DDT] or griseofulvin 100 μg/mL for simvastatin and pravastatin containing samples, respectively) was added, and samples were vortex mixed for 30 seconds. Proteins were precipitated by the addition of 300 μL of chilled ACN, and samples were vortex mixed for 1 minute and then centrifuged at 900g for 10 minutes at 4°C. After centrifugation, the ACN layer was transferred into new glass test tubes, and 3 mL of methyl tert-butyl ether were added to each sample, vortex mixed for 10 minutes, and centrifuged at 1,615g for 10 minutes at 4°C. Finally, the upper organic layers were separated using glass Pasteur pipette, transferred into new glass tubes, and the contents of the tubes were evaporated to dryness using Techne Sample Concentrator (Bibby Scientific Ltd, UK). The dry residues were reconstituted with 100 μL of the mobile phase, vortex mixed, and placed into appropriate HPLC vials. Samples from PBS were extracted in the same way with one exception that the protein precipitation step was skipped.
(§5) HPLC analysis was performed using Waters Alliance 2965 separation module equipped with Waters 996 Photodiode Array Detector and integrated autosampler. System control and data processing were performed using Empower software. Chromatographic separation was achieved by ACE Excel Super C18 column (100 × 3 mm, 3 μm) under isocratic conditions with mobile phase consisting of ACN: 5 mmol/L ammonium acetate buffer, pH 4.5 (73:27 and 55:45, v/v for simvastatin and pravastatin samples, respectively). The flow rate was set at 0.4 mL/min for simvastatin and 0.3 mL/min for pravastatin samples. Samples temperature was kept at 4°C, and column temperature was set at 40°C. Chromatographic separation was monitored by photodiode array detector at 238 nm with an injection volume of 20 μL.

Data set [4] in a line: Interconversion / hydrolysis of the lactone form of statins in human plasma of modified pH. In kind it is in vitro ADME. The note with it: for proportion of lactone converted to the hydroxy acid form: 50 μmol/L, 24 hours at 37°C; for half-life at 50 μmol/L: 37°C. The protocol: as §3, §4
as §5, with “40°C.” for “40°C. Chromatographic separation was monitored by photodiode array detector at 238 nm with an injection volume of 20 μL.”

Data set [5] in a line: Hydrolysis of the lactone form of statins in DMEM culture medium of modified pH. The data set is classed as physicochemical. The note with it: 37°C. The protocol:
as §2, §3
Fully validated HPLC-UV methods were used to determine the concentrations of the lactone and the corresponding hydroxy acid forms of simvastatin and pravastatin after interconversion studies in human plasma, PBS, and DMEM culture medium of different pH. Samples for HPLC analysis were prepared by protein precipitation followed by liquid-liquid extraction. A 100 μL of human plasma or DMEM samples were pipetted into 1.5 mL Eppendorf tubes, and 50 μL of ammonium acetate buffer (100 mmol/L, pH 4.5) along with 10 μL of internal standard solution (4,4-dichlorodiphenyltrichloroethane [DDT] or griseofulvin 100 μg/mL for simvastatin and pravastatin containing samples, respectively) was added, and samples were vortex mixed for 30 seconds. Proteins were precipitated by the addition of 300 μL of chilled ACN, and samples were vortex mixed for 1 minute and then centrifuged at 900g for 10 minutes at 4°C. […]
HPLC analysis was performed using Waters Alliance 2965 separation module equipped with Waters 996 Photodiode Array Detector and integrated autosampler. […] Chromatographic separation was monitored by photodiode array detector at 238 nm with an injection volume of 20 μL.

Data set [6] relates to undifferentiated C2C12 cells. The experiment in a line: MTT cytotoxicity in undifferentiated C2C12 cells in medium of different pH. The data set is classed as cell-based. As to conditions: Mus musculus, 72 hours, read-out: IC50 values of statins. The protocol: (§6) The effect of medium pH alteration on the cytotoxicity of statins was evaluated by MTT and LDH cytotoxicity assays. Both undifferentiated and differentiated C2C12 cells were used in these studies. […] Before starting treatment, the medium was replaced by a fresh one with modified pH (6.8, 7.4, and 7.8). […] Positive control samples with 100% cell death were obtained by treating cells with 1% Triton X-100. Produced formazan crystals were dissolved in DMSO, and the absorbance was measured at 570 nm using EnVision Multilabel Plate Reader (PerkinElmer). Results were expressed as percentage of the control, and IC50 was calculated using prism 6 (GraphPad Software Inc).

The test system of data set [7] is differentiated C2C12 cells. Nature of the data set: MTT cytotoxicity in differentiated C2C12 cells in medium of different pH. The data set is classed as cell-based. As to conditions: Mus musculus, acidic medium (pH 6.8), 72 hours, read-out: IC50 values of statins. The protocol: as §6

Turning to `CC[C@H](C)C(=O)O[C@H]1C[C@H](O)C=C2C=C[C@H](C)[C@H](CC[C@@H](O)C[C@@H](O)CC(=O)O)[C@H]21` [PVA, pravastatin hydroxy acid sodium], the “intracellular levels of pravastatin” value in data set [1] and in data set [2] was “below the limit of quantification” throughout.
On to `CC[C@H](C)C(=O)O[C@H]1C[C@H](O)C=C2C=C[C@H](C)[C@H](CC[C@@H]3C[C@@H](O)CC(=O)O3)[C@H]21` [PVL, pravastatin lactone], for which the half-life at 50 μmol/L in data set [3] (pH 6.8, 50 μmol/L) was 1270 ± 105 min; in data set [3] (pH 7.0, 50 μmol/L), 778 ± 82.8 min; in data set [3] (pH 7.2, 50 μmol/L), 562 ± 94.2 min; in data set [3] (pH 7.4, 50 μmol/L) it was 413 ± 24.6 min; in data set [3] (pH 7.6, 50 μmol/L), 335 ± 29.4 min; in data set [3] (pH 7.8, 50 μmol/L), 299 ± 26.4 min. For the same compound, the half-life at 50 μmol/L in data set [4] (pH 6.8, 50 μmol/L) is 530 ± 18.6 min; in data set [4] (pH 7.0, 50 μmol/L), 443 ± 13.2 min; in data set [4] (pH 7.2, 50 μmol/L) it was 397 ± 57 min; in data set [4] (pH 7.4, 50 μmol/L), 411 ± 32.4 min; in data set [5] (pH 6.8, 50 μmol/L), 1040 ± 240 min; in data set [5] (pH 7.2, 50 μmol/L), 713 ± 163 min. The half-life at 50 μmol/L in data set [5] (pH 7.4, 50 μmol/L) was 583 ± 85.2 min; in data set [5] (pH 7.8, 50 μmol/L), 640 ± 48.6 min. Moreover, the entries for the “proportion of lactone converted to the hydroxy acid form” value in data set [4] (alkaline pH) and in data set [4] (physiological pH) were around 99% and around 98%, respectively. Further, the “intracellular levels of pravastatin” value in data set [1] and in data set [2] was “below the limit of quantification” throughout.
On to `CCC(C)(C)C(=O)O[C@H]1C[C@@H](C)C=C2C=C[C@H](C)[C@H](CC[C@@H](O)C[C@@H](O)CC(=O)O)[C@H]21` [SVA, simvastatin hydroxy acid ammonium salt], for which the “increase in uptake at acidic extracellular pH” value in data set [2] (1 μmol/L SVA) is “more than 2 folds”. Further, the “reduction in uptake under alkaline pH” value in data set [2] (1 μmol/L SVA) was “approximately 50%”. The IC50 in data set [6] (acidic medium (pH 6.8)) was 2.22 ± 0.04 µM; in data set [6] (alkaline medium (pH 7.8)), 16.9 ± 0.48 µM; in data set [6] (neutral medium (pH 7.4)), 4.35 ± 0.09 µM; in data set [7], 65.4 ± 2.69 µM.

(Values after paper PMC4967449, “The role of acid-base imbalance in statin-induced myotoxicity” (Translational Research, 2016).)
